Data reported in the supplement of paper PMC11424490.
Structures can show the parent of a compound that is named as a salt.

Columns and labels:
NCI-H2122 [1] = experiment: combination cScore with adagrasib (Bliss gap around IC50) (%PoC); higher = stronger additive effect
Method: (§1)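 Combination screen of 179 inhibitors with the KRAS G12C inhibitor adagrasib (MRTX849) in dose matrices, CellTiter-Glo readout in NCI-H2122 (72 h), SW837 (144 h) and NCI-H358 cells. The cScore is the mean Bliss-independence gap (expected minus observed viability, in %PoC) over a 3x3 field around the IC50s of both drugs. Positive means additive, and >~10 is stated as clear additive.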

SW837 [2] = experiment: as above
Method: as §1

NCI-H2122 [3] = experiment: combination cScore with sotorasib (Bliss gap around IC50) (%PoC); higher = stronger additive effect
Method: as §1, with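 “sotorasib (AMG510)” for “adagrasib (MRTX849)”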

NCI-H2122 [4] = experiment: fitted bottom plateau of viability curve, % of DMSO control; higher = less maximal inhibition; extreme values may be limits of the assay
Method: (§2)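 CellTiter-Glo proliferation assay in KRAS G12C mutant NCI-H2122 (72 h), SW837 (144 h) and NCI-H358 cells in 384-well plates. Monotherapy dose response was fitted with a four-parameter curve after normalisation to DMSO controls (% of control, PoC). IC50 is the relative IC50, averaged over replicates. Bottom is the fitted lower plateau in %PoC; Max.Conc. is the top dose tested.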

SW837 [5] = experiment: as above
Method: as §2

| SMILES | combination cScore with adagrasib (NCI-H2122 [1]) | combination cScore with adagrasib (SW837 [2]) | combination cScore with sotorasib (NCI-H2122 [3]) | fitted bottom plateau of viability curve (NCI-H2122 [4]) [%] | fitted bottom plateau of viability curve (SW837 [5]) [%] |
| --- | --- | --- | --- | --- | --- |
| CC(C)(C(=O)NCC(F)(F)C(F)(F)F)C(=O)N[C@@H]1C(=O)Nc2ccccc2-c2ccccc21 + C=C(F)C(=O)N1CCN(c2nc(OC[C@@H]3CCCN3C)nc3c2CCN(c2cccc4cccc(Cl)c24)C3)C[C@@H]1CC#N [adagrasib] | 6.57 | 9.86 |  |  |  |
| CCc1cnn2c(NCc3ccc[n+]([O-])c3)cc(N3CCCC[C@H]3CCO)nc12 + C=C(F)C(=O)N1CCN(c2nc(OC[C@@H]3CCCN3C)nc3c2CCN(c2cccc4cccc(Cl)c24)C3)C[C@@H]1CC#N [adagrasib] | -0.08 | 0.92 |  |  |  |
| CN(C)CCCC(=O)Nc1n[nH]c2nnc(-c3ccccc3)cc12 + C=C(F)C(=O)N1CCN(c2nc(OC[C@@H]3CCCN3C)nc3c2CCN(c2cccc4cccc(Cl)c24)C3)C[C@@H]1CC#N [adagrasib] | -12.3 | -2.5 |  |  |  |
| COc1ccc(Cn2ccc3ccc(C(=O)NO)cc32)cc1 + C=C(F)C(=O)N1CCN(c2nc(OC[C@@H]3CCCN3C)nc3c2CCN(c2cccc4cccc(Cl)c24)C3)C[C@@H]1CC#N [adagrasib] | 2.01 | 1.45 |  |  |  |
| COc1ccc2nc3ccc(OC)cc3c(SCCCN)c2c1 + C=C(F)C(=O)N1CCN(c2nc(OC[C@@H]3CCCN3C)nc3c2CCN(c2cccc4cccc(Cl)c24)C3)C[C@@H]1CC#N [adagrasib] | 7.77 | -2.24 |  |  |  |
| C[C@@H](Oc1cc(-c2cnn(C3CCNCC3)c2)cnc1N)c1c(Cl)ccc(F)c1Cl + C=C(F)C(=O)N1CCN(c2nc(OC[C@@H]3CCCN3C)nc3c2CCN(c2cccc4cccc(Cl)c24)C3)C[C@@H]1CC#N [adagrasib] | 6.58 | 12.7 |  |  |  |
| Cc1[nH]c(/C=C2\C(=O)Nc3ccc(S(=O)(=O)Cc4c(Cl)cccc4Cl)cc32)c(C)c1C(=O)N1CCC[C@@H]1CN1CCCC1 + C=C(F)C(=O)N1CCN(c2nc(OC[C@@H]3CCCN3C)nc3c2CCN(c2cccc4cccc(Cl)c24)C3)C[C@@H]1CC#N [adagrasib] | 6.94 | -0.48 |  |  |  |
| NC(=O)c1ccc(-c2nc(-c3ccccn3)c(-c3ccc4c(c3)OCO4)[nH]2)cc1 + C=C(F)C(=O)N1CCN(c2nc(OC[C@@H]3CCCN3C)nc3c2CCN(c2cccc4cccc(Cl)c24)C3)C[C@@H]1CC#N [adagrasib] | 0.05 | -9.94 |  |  |  |
| NC(=O)c1cnc(N[C@@H]2CCCC[C@@H]2N)nc1Nc1cccc(-n2nccn2)c1 + C=C(F)C(=O)N1CCN(c2nc(OC[C@@H]3CCCN3C)nc3c2CCN(c2cccc4cccc(Cl)c24)C3)C[C@@H]1CC#N [adagrasib] | 11.8 | 3.74 |  |  |  |
| O=[N+]([O-])c1ccc(NCCNc2ncc(-c3ncc[nH]3)c(-c3ccc(Cl)cc3Cl)n2)nc1 + C=C(F)C(=O)N1CCN(c2nc(OC[C@@H]3CCCN3C)nc3c2CCN(c2cccc4cccc(Cl)c24)C3)C[C@@H]1CC#N [adagrasib] | -12.7 | 5.65 |  |  |  |
| On1ncc2cc(CCc3nn[nH]n3)ccc21 + C=C(F)C(=O)N1CCN(c2nc(OC[C@@H]3CCCN3C)nc3c2CCN(c2cccc4cccc(Cl)c24)C3)C[C@@H]1CC#N [adagrasib] | 7.37 | -2.04 |  |  |  |
| c1ccc(-c2nn3c(c2-c2ccnc4cc(OCCN5CCOCC5)ccc24)CCC3)nc1 + C=C(F)C(=O)N1CCN(c2nc(OC[C@@H]3CCCN3C)nc3c2CCN(c2cccc4cccc(Cl)c24)C3)C[C@@H]1CC#N [adagrasib] | -21.2 | 0.67 |  |  |  |
| CC1(C)CCC(CN2CCN(c3ccc(C(=O)NS(=O)(=O)c4ccc(NCC5CCOCC5)c([N+](=O)[O-])c4)c(Oc4cnc5[nH]ccc5c4)c3)CC2)=C(c2ccc(Cl)cc2)C1 [ABT-199] + C=C(F)C(=O)N1CCN(c2nc(OC[C@@H]3CCCN3C)nc3c2CCN(c2cccc4cccc(Cl)c24)C3)C[C@@H]1CC#N [adagrasib] | 3.14 | -3.71 |  |  |  |
| N[C@H]1CC[C@H](N[C@@H]2C[C@H]2c2ccccc2)CC1 [ORY-1001] + C=CC(=O)N1CCN(c2nc(=O)n(-c3c(C)ccnc3C(C)C)c3nc(-c4c(O)cccc4F)c(F)cc23)[C@@H](C)C1 [sotorasib] |  |  | 8.65 |  |  |
| CCCS(=O)(=O)Nc1ccc(F)c(C(=O)c2c[nH]c3ncc(Cl)cc23)c1F [PLX4720] + C=C(F)C(=O)N1CCN(c2nc(OC[C@@H]3CCCN3C)nc3c2CCN(c2cccc4cccc(Cl)c24)C3)C[C@@H]1CC#N [adagrasib] |  | -5.68 |  |  |  |
| Cc1[nH]c2ccccc2c1CCNCc1ccc(/C=C/C(=O)NO)cc1 [Panobinostat] + C=CC(=O)N1CCN(c2nc(=O)n(-c3c(C)ccnc3C(C)C)c3nc(-c4c(O)cccc4F)c(F)cc23)[C@@H](C)C1 [sotorasib] |  |  | 0.52 |  |  |
| CO[C@H]1C[C@@H]2CC[C@@H](C)[C@@](O)(O2)C(=O)C(=O)N2CCCC[C@H]2C(=O)O[C@H]([C@H](C)C[C@@H]2CC[C@@H](O)[C@H](OC)C2)CC(=O)[C@H](C)/C=C(\C)[C@@H](O)[C@@H](OC)C(=O)[C@H](C)C[C@H](C)/C=C/C=C/C=C/1C [Rapamycin] (top concentration tested 1000 nM) |  |  |  | 64.1 | 88.4 |
| CNC(=O)c1cc(Oc2ccc(NC(=O)Nc3ccc(Cl)c(C(F)(F)F)c3)c(F)c2)ccn1 [Regorafenib] (top concentration tested 999.95 nM) |  |  |  | 82.1 | 92.7 |
| N#CC[C@H](C1CCCC1)n1cc(-c2ncnc3[nH]ccc23)cn1 [Ruxolitinib] (top concentration tested 9999.9 nM) |  |  |  | 73.3 | 88.3 |
| CNC(=O)c1cc(Oc2ccc(NC(=O)Nc3ccc(Cl)c(C(F)(F)F)c3)cc2)ccn1 [Sorafenib] (top concentration tested 999.95 nM) |  |  |  | 84.3 | 92.6 |
| Cn1nnc2c(C(N)=O)ncn2c1=O [Temozolomide] (top concentration tested 50000 nM) |  |  |  | 83.2 | 93.2 |
| C[C@@H]1CCN(C(=O)CC#N)C[C@@H]1N(C)c1ncnc2[nH]ccc12 [Tofacitinib citrate] (top concentration tested 10000 nM) |  |  |  | 63 | 99 |
| CC1=C(/C=C/C(C)=C/C=C/C(C)=C/C(=O)O)C(C)(C)CCC1 [Tretinoin] (top concentration tested 10000 nM) |  |  |  | 78.8 | 105 |
| CC(C)Nc1cc(-c2c[nH]c(C(=O)N[C@H](CO)c3cccc(Cl)c3)c2)c(Cl)cn1 [Ulixertinib] (top concentration tested 99.921 nM) |  |  |  | 64.5 | 97.1 |
| CCCC(CCC)C(=O)O [Valproic acid] (top concentration tested 10000 nM) |  |  |  | 72.1 | 92.8 |
| C[C@]1(c2nc3c(C(N)=O)cccc3[nH]2)CCCN1 [Veliparib] (top concentration tested 10000 nM) |  |  |  | 93.6 | 102 |
| CS(=O)(=O)c1ccc(C(=O)Nc2ccc(Cl)c(-c3ccccn3)c2)c(Cl)c1 [Vismodegib] (top concentration tested 10000 nM) |  |  |  | 91.1 | 103 |
